Measurements as given in publication PMC7698045, “Milk Protein-Derived Antioxidant Tetrapeptides as Potential Hypopigmenting Agents” (Antioxidants, 2020).
pIC50: −log10 of the molar value. Like-named read-outs stand apart in the source and are kept apart here. Ends that are not written are not given here. Peptide text beside a SMILES is read from it.

Legend:
mushroom tyrosinase = assay: Mushroom tyrosinase inhibition test with L-DOPA as substrate; type: biochemical; settings: for pIC50: L-DOPA 2.5 mM, mushroom tyrosinase 100 µg/mL (428 U/mL), 25 °C, 10 min, read-out: IC50 (tyrosinase inhibitory activity); for effect on dopachrome formation (UV-Vis scanning): dopachrome at 475 nm, L-DOPA and mushroom tyrosinase
Method: A mushroom tyrosinase inhibition test was carried out with L-DOPA as a substrate. Two hundred fifty microliters of phosphate buffer (0.1 M, pH 6.8), 250 µL of 2.5 mM L-DOPA, 200 µL of water and 25 µL of oligopeptide in DMSO at various concentrations were mixed. The reaction mixture was incubated at 25 °C for 10 min after the addition of 25 µL of aqueous mushroom tyrosinase solution (100 µg/mL, 428 U/mL) and then the UV absorbance was measured at 475 nm. The following equation was used to calculate the percentage of mushroom tyrosinase inhibition: % Tyrosinase Inhibition = (1 − A/B) × 100 where A represents the absorbance at 475 nm of the reaction mixture that contained the inhibitor and B represents the absorbance at 475 nm of a reference reaction mixture that contained DMSO instead of the inhibitor. The concentration of half-maximal inhibitory activity (IC50) values were determined by measuring the tyrosinase inhibitory activity at various peptide concentrations (10, 50, 100, 250 and 500 µM). Each experiment was performed in triplicate and the results were averaged.

[1] = Lipid peroxidation ferric thiocyanate assay (antioxidant activity); settings: lipid peroxidation inhibition after 24 h, 50 °C, dark, peptide 250 μM; for antioxidant activity relative to the original peptide (enhancement): original peptide set to 1.0
Method: Linoleic acid and Tween 20 were mixed in 0.1 M sodium phosphate buffer (pH 7.0) to prepare a linoleic acid emulsion (50 mM). […] These reaction mixtures were tightly capped by septa in glass vials and kept at 50 °C for 30 h under dark conditions. To evaluate the antioxidant activity of the oligopeptides by the quantification of lipid peroxidation inhibition, the ferric thiocyanate assay was used with some modifications. An aliquot of the reaction mixture (25 µL) was withdrawn at intervals and mixed with 1.175 mL of 75% ethanol, 25 µL of 20 mM ferrous chloride in 3.5% HCl and 25 µL of 30% ammonium thiocyanate. The absorbance was measured at 500 nm after 3 min, which was when the color development by the ferric thiocyanate complex was maximal. Each experiment was conducted in triplicate and the results were averaged.

Mel-Ab cells = assay: Melanogenesis inhibition test in Mel-Ab cells; type: cell-based, mouse
Method: (§1) B16F10 cells were cultured in DMEM that was supplemented with 10% (v/v) fetal bovine serum (FBS), 50 μg/mL streptomycin and 50 U/mL penicillin at 37 °C in 5% CO2. Mel-Ab cells were cultured in DMEM with 10% (v/v) FBS, 100 nM 12-O-tetradecanoylphorbol-13-acetate (TPA), 1 nM cholera toxin (CT), 50 μg/mL streptomycin and 50 U/mL penicillin at 37 °C in 5% CO2.
(§2) The effects of the inhibitors (peptides and arbutin) on melanin formation in Mel-Ab cells and B16F10 cells were evaluated. B16F10 cells (5 × 10^3 per well) were cultured in 96-well plates and incubated with the samples (1, 5, 10, 50 and 100 μM) in a complete medium that contained α-MSH for 4 days. Then, the medium was collected from each well and the optical densities were measured at 405 nm. Mel-Ab cells (5 × 10^4 per well) were cultured in 6-well plates and incubated with the samples (1, 5, 10, 50 and 100 μM) in the complete medium for 3 days. Next, the treated cells were then dissolved in 1 mL of 1 N NaOH at 100 °C for 30 min and centrifuged for 20 min at 16,000 g, after which the optical densities of the supernatants were measured at 400 nm.
The percentage of melanin content was calculated via following equation: % melanin content = (A/B) × 100 where A represents the optical density of the sample-treated group and B represents the optical density of the untreated control group. All the tests were conducted independently three times. Each experiment was performed in triplicate and the results were averaged.

B16F10 cells = assay: Melanogenesis inhibition test in α-MSH-stimulated B16F10 cells; type: cell-based
Method: as §1, §2
The percentage of melanin content was calculated via following equation: % melanin content = (A/B) × 100 where A represents the optical density of the sample-treated group and B represents the optical density of the untreated control group. […]

[2] = test system: phosphorylation of CREB at serin-133; settings: 100 µM, α-MSH-treated B16F10 cells
Method: For the Western blot analysis, B16F10 cells were seeded into 6-well plates. After 24 h, the cultured medium was replaced with serum-free DMEM and incubated for another 24 h. Then, the cells were treated with samples in new serum-free media and incubated for 0–360 min. Cells were lysed with RIPA buffer containing protease inhibitor cocktail and phosphatase inhibitor cocktail. Protein concentration was determined using the Bicinchoninic acid (BCA) protein assay kit (Thermo Scientific, Rockford, IL, USA). Protein (20 μg) samples were separated on 4–20% polyacrylamide gels and then transferred to polyvinylidene fluoride (PVDF) membranes (#1704156, Bio-Rad, Hercules, CA, USA), which were blocked with 5% nonfat dry milk in Tris buffered saline solution containing 0.1% Tween 20. The blots were incubated with the primary antibodies at 4 °C overnight. Membrane-bound primary antibodies were detected using HRP-conjugated secondary antibodies and chemiluminescent substrate. Digital images of the blotted membranes were obtained and analyzed using ChemiDoc XRS+ Systems with Image Lab Software (Version 5.1) (Bio-Rad). The relative protein expression of p-cAMP response element-binding protein (CREB) was normalized to that of CREB and glyceraldehyde 3-phosphate dehydrogenase (GAPDH).

Row | Compound | pIC50 (mushroom tyrosinase) | effect on dopachrome formation (UV-Vis scanning) (mushroom tyrosinase) | decrease of antioxidant activity relative to the original peptide [1] | antioxidant activity relative to the original peptide (enhancement) [1] | reduction of melanin content (Mel-Ab cells; 100 µM, 3 days) [%] | tyrosinase inhibition mode (Lineweaver-Burk plot) (mushroom tyrosinase; Km values increase and Vmax values decrease with increasing peptide concentration) | reduction of melanin content (Mel-Ab cells; 5 μM) [%] | suppression of melanin production (B16F10 cells; 50 µM, B16F10 cells) | suppression of phosphorylation of CREB ([2]; 10 min) [%] | suppression of phosphorylation of CREB ([2]; 180 min) [%] | inhibition of melanin production (in words) (B16F10 cells; α-MSH treated B16F10 cells, various concentrations)
1 | histidine-isoleucine-arginine-leucine amide [HIRL] | 4.15 | sufficiently suppress dopachrome formation | more than 50% | 1.3–1.8 times | 33 |  |  |  |  |  | 
2 | Methionine-histidine-isoleucine-arginine amide [MHIR] | 4.08 | sufficiently suppress dopachrome formation |  | 1.3–1.8 times | 57 | mixed-mode of inhibition | 30 | up to 80% | 18 | 37 | 
3 | CC[C@H](C)[C@H](NC(=O)[C@H](Cc1c[nH]cn1)NC(=O)[C@H](CCSC)NC(C)=O)C(=O)N[C@@H](CCCNC(=N)N)C(N)=O [Ac-MHIR] (Ac-MHIR-NH2) |  |  |  |  |  |  |  |  |  |  | barely inhibits melanin production
4 | MHIRL-NH2 [MHIRL, methionine-histidine-isoleucine-arginine-leucine amide] |  |  |  |  | 28 |  |  |  |  |  | 
